What was measured:
[1] = Drug localization in nucleus of human MGHU3 cells at 10 uM after 24 hrs by NanoSIMS analysis; format: ADME, subcellular; conditions: mghu3, 24 h
[2] = Drug localization in cytoplasm of human A549 cells at 10 uM after 24 hrs by NanoSIMS analysis; format: ADME, subcellular; conditions: a549, 24 h
[3] = Drug localization in nucleus of human A549 cells at 10 uM after 24 hrs by NanoSIMS analysis; format: ADME, subcellular; conditions: a549, 24 h
[4] = species on record: Homo sapiens; assay: Selectivity ratio of IC50 for recombinant GST-tagged human Mer (578 to 872 residues) cytoplasmic domain to IC50 for recombinant His-tagged human Axl (473 to end residues) cytoplasmic domain
[5] = species on record: Homo sapiens; assay: Selectivity ratio of IC50 for recombinant GST-tagged human Tyro3 (451 to 890 residues) cytoplasmic domain to IC50 for recombinant His-tagged human Axl (473 to end residues) cytoplasmic domain
[6] = Solubility of the compound in 0.2% DMSO; format: physicochemical

CC(C)c1nc2c(Oc3ccc(NC(=O)c4cccn(-c5ccc(F)cc5)c4=O)cc3F)ccnc2[nH]1
Drug uptake [1]: Active | Drug uptake [2]: Active | Drug uptake [3]: Active

O=C(Nc1ccc(Oc2ccnc3[nH]cnc23)c(F)c1)c1cccn(-c2ccc(F)cc2)c1=O
Ratio IC50 [4]: 120 to 900 | Ratio IC50 [5]: 120 to 900

O=C(Nc1ccc(Oc2c(Br)cnc3[nH]cnc23)c(F)c1)c1cccn(-c2ccc(F)cc2)c1=O
solubility [6]: Insoluble
